This is an account of results in patent publication US11986513B2, “GAL(1-15) and analogues thereof for use in the prevention and/or treatment of alcohol-related effects and disorders” (UNIVERSIDAD DE MÁLAGA, priority 2017, dated 2024).

The structures appear in SMILES notation. Read-outs that look alike come from different tables or passages of the source.

One assay deals with rats. In words: Locomotor activity (open field), ethanol-reduced locomotion. Type of assay: in vivo, rat. The note with it: ethanol 1.75 g/kg i.p., five minutes after administration, open field. How it is done:
In this experiment, the effects of GAL(1-15) (3 nmol) on ethanol-reduced locomotion (1.75 g/kg; intraperitoneal (i.p.)) (Vallof et al., 2016) were investigated. Locomotor activity was recorded in rat open field (100×100×50 cm) where animals were individually placed and left to freely explore. Their behaviour was recorded over a 30-minute period by ceiling-mounted video camera, and locomotor activity was analysed using the video-tracking software EthovisionXT. After each assay, all surfaces were cleaned with a paper towel and 70% ethanol solution. For locomotor activity, total distance travelled (cm) and mean speed (cm/s) were recorded. Groups of rats were administered via i.c.v. GAL(1-15) or vehicle 20 minutes before the test; i.p. ethanol (1.75 g/kg) or saline solution administration was performed 5 minutes before the test.

The next assay concerns GALR2. The note with it: for GALR2 mRNA expression in the corpus striatum: naive rats, mean ± SEM. How it is done: (§1) The method to perform RNA isolation and RT-PCR was described previously (Millon et al., 2015). Total RNA was isolated from the corpus striatum using RNeasy Lipid Tissue kit (Qiagen, Hilden, Germany). cDNA was obtained using a Reverse Transcriptase Core kit (Eurogentec, Seraing, Belgium). These steps were performed according to the manufacturer's instructions.
(§2) All PCR analyses were performed in triplicate using Power SYBR Green PCR Master Mix (Applied Biosystems, Foster City, USA) in the 7500 RT-PCR system (Applied Biosystems, Foster City, USA). The primer sequences used in this study are:
(§3) The data was analysed using the comparative Ct method and normalised to measurements of glyceraldehyde-3-phosphate dehydrogenase (GAPDH) mRNA.
(§4) Groups of naïve rats were injected i.p. with ethanol at 4 g/kg (Bilbao et al., 2016), dissolved in a 0.9% sterile saline solution (w/v), and 0, 2, and 4 hours after the injection the brains were extracted after a rapid decapitation. The corpus striatum was quickly extracted from all the animals and frozen immediately on solid CO2 until use. The method to perform RNA isolation and RT-PCR was described previously.

A further assay relates to GALR1. The note with it: for GALR1 mRNA expression in the corpus striatum: naive rats, mean ± SEM. How it is done: as §1, §2, §3, §4
The subject of assay [1] is hepatic cytosolic alcohol dehydrogenase (ADH). How it is done: The activity of hepatic cytosolic alcohol dehydrogenase (ADH) in the rats from the two-bottle choice test was analysed. ADH activity has a good correlation with ethanol elimination rates in vivo (Lumeng et al., 1979) and chronic ethanol administration causes an increase in ADH activity (Buris et al., 1985).
The livers were removed 2 hours after i.c.v. injections and frozen in solid CO2 until use. Determination of ADH activity was performed in homogenized liver tissue in a TrisHCl solution (10 mM, pH=8.8; 0.5 mM dithiothreitol) centrifuged at 12.000 g for 10 minutes. ADH activity was evaluated using a microassay adapted to Cobas Mira analyser according to Shephard and colleagues (Shephard et al., 1987). Briefly, 300 μl of NAD solution (2.9 mM in 0.1 M Glycine/NaOH: p=10) was added to 30 μl of sample. The first optical reading was recorded before the addition of 20 μl of 17 mM ethanol, and then the rate of change in absorption of the NADH chromogen was recorded at 340 nm over time on the Cobas Mira analyser at 37° C. One activity unit was defined as the reduction of […] NAD to NADH/min at 37° C.

The mark [2] stands for this setting: 0 hours after i.p. injection of EtOH (4 g/kg).
The mark [3] stands for this setting: 2 hours after i.p. injection of EtOH (4 g/kg).
Where [4] appears, read: 4 hours after i.p. injection of EtOH (4 g/kg).

On to `CCO` [EtOH, ethanol], for which the distance travelled entry with rats is “reduced”. For the same compound, the mean speed result in the assay with rats was “reduced”. Moreover, the results for the “GALR2 mRNA expression in the corpus striatum” value in the assay with GALR2 (setting [2]), with GALR2 (setting [3]) and with GALR2 (setting [4]) were 1.21 ± 0.1, 1.23 ± 0.1 and 1.44 ± 0.1, respectively. Moreover, in the assay with GALR2 (single injection of ethanol 4 g/kg i.p., any time point), the “effect on GALR2 mRNA levels in the corpus striatum” value is recorded as “No effects were observed”. For the same compound, the results for the “GALR1 mRNA expression in the corpus striatum” value in the assay with GALR1 (setting [2]), in the assay on GALR1 (setting [3]) and with GALR1 (setting [4]) were 0.87 ± 0.2, 0.60 ± 0.1 and 0.47 ± 0.1, respectively. For the same compound, the “effect on GALR1 expression in the corpus striatum” value in the assay with GALR1 (single injection of ethanol 4 g/kg i.p., at 2 and 4 hours) was “no effect”. Besides, the “ADH activity (liver)” value in assay [1] (voluntary ethanol intake in two-bottle choice test, i.c.v. cerebrospinal fluid vehicle, mean ± SEM) was found to be 313.1 ± 10.6 protein IU/g. The “ADH activity compared with the baseline group” value in assay [1] (voluntary ethanol intake through the two-bottle choice test protocol) is listed as “significant increase”.
